Laboratory results published in patent US20210188843A1, “QUINOLINE COMPOUNDS AND THEIR PREPARATION AND USE AS ANTIMALARIAL AGENTS” (The United States of America,as represented by the …, priority 2018, published 2021).
pEC50: −log10 of the molar value. Values after ≈ are worked out from the molar mass of the structure shown. Read-outs that look alike come from different tables or passages of the source.

What was measured:
[1] = tested on: Asexual parasites of P. falciparum strain 3D7; test: In vitro drug activity on asexual parasites (SYBR Green assay); assay type: cell-based; conditions: Plasmodium falciparum, P. falciparum 3D7 asexual stage, 72 h, read-out: Asexual EC50
Procedure: Cell culture. Asexual parasites of P. falciparum strain 3D7 were cultured as described previously [Trager W, et al., Journal of Parasitology 2005, 91: 484-486]. Stage III-V gametocytes were selected and enriched with 3-day treatment with 50 mM N-acetylglucosamine (NAG) and the following Percoll density gradient centrifugation after gametocyte production [Tanaka T Q, et al., Molecular and Biochemical Parasitology, 2011, 177: 160-163]. Gametocytes of HB3 and Dd2 strains were produced and then set up for assay in a similar process. HepG2 cells (ATCC, cat. no. 77400) were cultured in 175-cm^2 tissue culture flasks with 30 ml growth medium at 37° C. in a 5% CO2 humidified atmosphere. Growth medium was made with Dulbecco's Modified Eagle Medium with 10% fetal bovine serum (FBS). Growth medium was replaced every other day and cells were passed at 75% confluence.
Asexual parasites of P. falciparum strain 3D7 were cultured as described previously (Trager, W. et al., J. Parasitol. 2005, 91(3): 484-486). Drug activity on asexual stage parasites was tested using a SYBR Green assay as described previously (Eastman, R. T. et al., Antimicrob. Agents Chemother. 2013, 57(1): 425-435; Smilkstein, M. et al., Antimicrob. Agents Chemother. 2004, 48(5): 1803-1806). Briefly, parasites were diluted to 0.5% parasitemia in complete culture medium with 2% hematocrit and drugs diluted in DMSO (<0.5%) and were loaded into a 96-well plate (200 μl/well). No drug and RBC alone wells were included as positive and background controls, respectively, and each testing condition was examined in duplicated. After 72 h incubation under the standard culture condition and a freeze-thaw lysis step at −80° C. and room temperature, 100 μl/well of lysis buffer containing SYBR Green I was added to the parasite culture and incubated for 30 min at room temperature. The fluorescence of each well was measured at 520 nm following excitation at 490 nm using a FLUOstar Optima™ microplate reader (BMG Labtech).
Compounds were screened against gametocytes and asexual parasites as described in Examples 1 and 2.

[2] = Microsomal stability (rat); assay type: in vitro ADME; conditions: rat microsomes
Solubility pH 7.4 = assay type: physicochemical; conditions: aqueous buffer
[3] = Table 1, read-out: Microsomal Stability (rat) T1/2

| pEC50 ([1]; Table 1) | pEC50 ([1]; Table 3) | Compound | other results |
| --- | --- | --- | --- |
| 6.39 |  | CCC(=O)N1CCC(n2c(=N)n(C)c3cnc4ccc(-c5ccc(Cl)cc5)cc4c32)CC1 [Compound 104, 1-(4-(8-(4-chlorophenyl)-2-imino-3-methyl-2,3-dihydro-1H-imidazo[4,5-c]quinolin-1-yl)piperidin-1-yl)propan-1-one] | half-life [2, 3]: > 30 min; solubility (Solubility pH 7.4; Table 1): > 44 µg/mL |
| 5.86 |  | Cn1c(=N)n(-c2cccc(S(N)(=O)=O)c2)c2c3cc(-c4ccc(Cl)cc4)ccc3ncc21 [Compound 77, 3-(8-(4-chlorophenyl)-2-imino-3-methyl-2,3-dihydro-1H-imidazo[4,5-c]quinolin-1-yl)benzenesulfonamide] | half-life [2, 3]: > 30 min; solubility (Solubility pH 7.4; Table 1): 6.2 µg/mL (≈ 13.4 µM) |
| 6.51 |  | Cn1c(=N)n(-c2cnc(N3CCOCC3)c(C#N)c2)c2c3cc(-c4ccc(Cl)cc4)ccc3ncc21 [Compound 50, 5-(8-(4-chlorophenyl)-2-imino-3-methyl-2,3-dihydro-1H-imidazo[4,5-c]quinolin-1-yl)-2-morpholinonicotinonitrile] | half-life [2, 3]: > 30 min; solubility (Solubility pH 7.4; Table 1): < 1 µg/mL |
| 6.20 |  | CCC(=O)N1CCC(N2CCC(n3c(=N)n(C)c4cnc5ccc(-c6ccc(Cl)cc6)cc5c43)CC2)CC1 [Compound 128, 1-(4-(8-(4-chlorophenyl)-2-imino-3-methyl-2,3-dihydro-1H-imidazo[4,5-c]quinolin-1-yl)-[1,4′-bipiperidin]-1′-yl)propan-1-one] |  |
| 5.32 |  | Cn1c(=N)n(C2CCCCC2)c2c3cc(-c4ccc(Cl)cc4)ccc3ncc21 [Compound 102, 8-(4-chlorophenyl)-1-cyclohexyl-3-methyl-1,3-dihydro-2H-imidazo[4,5-c]quinolin-2-imine] | half-life [2, 3]: > 30 min; solubility (Solubility pH 7.4; Table 1): 22.3 µg/mL (≈ 57 µM) |
| 6.59 |  | Cn1c(=N)n(-c2ccc(N3CCNCC3)c(C(F)(F)F)c2)c2c3cc(-c4ccc(Cl)cc4)ccc3ncc21 [Compound 72, 8-(4-chlorophenyl)-3-methyl-1-(4-(piperazin-1-yl)-3-(trifluoromethyl)phenyl)-1,3-dihydro-2H-imidazo[4,5-c]quinolin-2-imine] | half-life [2, 3]: > 30 min; solubility (Solubility pH 7.4; Table 1): < 1 µg/mL |
| 6.93 |  | Cn1c(=N)n(-c2cccc(CC#N)c2)c2c3cc(-c4ccc(Cl)cc4)ccc3ncc21 [Compound 73, 2-(3-(8-(4-chlorophenyl)-2-imino-3-methyl-2,3-dihydro-1H-imidazo[4,5-c]quinolin-1-yl)phenyl)acetonitrile] |  |
| 6.65 |  | Cn1c(=N)n(-c2ccnc(C#N)c2)c2c3cc(-c4ccc(Cl)cc4)ccc3ncc21 [Compound 90, 4-(8-(4-chlorophenyl)-2-imino-3-methyl-2,3-dihydro-1H-imidazo[4,5-c]quinolin-1-yl)picolinonitrile] |  |
| 7.13 |  | Cc1cc(F)c(C#N)cc1-n1c(=N)n(C)c2cnc3ccc(-c4ccc(Cl)cc4)cc3c21 [Compound 134, 5-(8-(4-chlorophenyl)-2-imino-3-methyl-2,3-dihydro-1H-imidazo[4,5-c]quinolin-1-yl)-2-fluoro-4-methylbenzonitrile] |  |
| 7.79 |  | Cc1cc(N2CCC(NS(C)(=O)=O)CC2)c(C#N)cc1-n1c(=N)n(C)c2cnc3ccc(-c4ccc(Cl)cc4)cc3c21 [Compound 131, N-(1-(4-(8-(4-chlorophenyl)-2-imino-3-methyl-2,3-dihydro-H-imidazo[4,5-c]quinolin-1-yl)-2-cyano-5-methylphenyl)piperidin-4-yl)methanesulfonamide] |  |
| 5.83 |  | CC(=O)N1CCC(N2CCC(n3c(=N)n(C)c4cnc5ccc(-c6ccc(Cl)cc6)cc5c43)CC2)CC1 [Compound 127, 1-(4-(8-(4-chlorophenyl)-2-imino-3-methyl-2,3-dihydro-1H-imidazo[4,5-c]quinolin-1-yl)-[1,4′-bipiperidin]-1′-yl)ethan-1-one] |  |
| 8.20 |  | Cc1cc(N2CCNC(=O)C2)c(C#N)cc1-n1c(=N)n(C)c2cnc3ccc(-c4ccc(Cl)cc4)cc3c21 [Compound 133, 5-(8-(4-chlorophenyl)-2-imino-3-methyl-2,3-dihydro-1H-imidazo[4,5-c]quinolin-1-yl)-4-methyl-2-(3-oxopiperazin-1-yl)benzonitrile] |  |
| 6.63 |  | COC(=O)/N=c1\n(C)c2cnc3ccc(-c4cccc(F)c4)cc3c2n1-c1cc(C#N)c(N2CCOCC2)cc1C [Compound 148, Methyl (E)-(1-(5-cyano-2-methyl-4-morpholinophenyl)-8-(3-fluorophenyl)-3-methyl-1,3-dihydro-2H-imidazo[4,5-c]quinolin-2-ylidene)carbamate] |  |
| 5.83 |  | Cc1cc(N2C[C@@H]3CCCN[C@@H]3C2)c(C#N)cc1-n1c(=N)n(C)c2cnc3ccc(-c4ccc(Cl)cc4)cc3c21 [Compound 120, 5-(8-(4-chlorophenyl)-2-imino-3-methyl-2,3-dihydro-1H-imidazo[4,5-c]quinolin-1-yl)-4-methyl-2-((4aS,7aS)-octahydro-6H-pyrrolo[3,4-b]pyridin-6-yl)benzonitrile] |  |
| 6.45 |  | Cc1cc(N2CCOC(C)C2)c(C#N)cc1-n1c(=N)n(C)c2cnc3ccc(-c4ccc(Cl)cc4)cc3c21 (stereo not shown) [Compound 119, 5-(8-(4-chlorophenyl)-2-imino-3-methyl-2,3-dihydro-1H-imidazo[4,5-c]quinolin-1-yl)-4-methyl-2-(2-methylmorpholino)benzonitrile] |  |
| 6.10 |  | Cc1cc(N2CCCC2)c(C#N)cc1-n1c(=N)n(C)c2cnc3ccc(-c4ccc(Cl)cc4)cc3c21 [Compound 111, 5-(8-(4-chlorophenyl)-2-imino-3-methyl-2,3-dihydro-1H-imidazo[4,5-c]quinolin-1-yl)-4-methyl-2-(pyrrolidin-1-yl)benzonitrile] |  |

The remaining lines, values behind:

| Compound | pEC50 ([1]; Table 1) | pEC50 ([1]; Table 3) | other results |
| --- | --- | --- | --- |
| Cc1ccc(C#N)cc1-n1c(=N)n(C)c2cnc3ccc(-c4ccc(N)nc4)cc3c21 [Compound 2, 3-(8-(6-aminopyridin-3-yl)-2-imino-3-methyl-2,3-dihydro-H-imidazo[4,5-c]quinolin-1-yl)-4-methylbenzonitrile] | 8.27 |  | half-life [2, 3]: > 30 min; solubility (Solubility pH 7.4; Table 1): > 60 µg/mL |
| Cn1c(=N)n(-c2cncc(C(N)=O)c2)c2c3cc(-c4ccc(Cl)cc4)ccc3ncc21 [Compound 46, 5-(8-(4-chlorophenyl)-2-imino-3-methyl-2,3-dihydro-1H-imidazo[4,5-c]quinolin-1-yl)nicotinamide] | 5.75 |  | half-life [2, 3]: > 30 min; solubility (Solubility pH 7.4; Table 1): 19.9 µg/mL (≈ 46.4 µM) |
| CCCC/N=c1\n(C)c2cnc3ccc(-c4ccc(Cl)cc4)cc3c2n1-c1cc(C#N)ccc1C [Compound 17, (E)-3-(2-(butylimino)-8-(4-chlorophenyl)-3-methyl-2,3-dihydro-1H-imidazo[4,5-c]quinolin-1-yl)-4-methylbenzonitrile] | 6.27 |  | half-life [2, 3]: > 30 min; solubility (Solubility pH 7.4; Table 1): 1.1 µg/mL (≈ 2.29 µM) |
| Cn1/c(=N\c2cncnc2)n(-c2cncnc2)c2c3cc(-c4cccc(F)c4)ccc3ncc21 |  | 6.71 |  |
| COc1ccnc(-n2c(=N)n(C)c3cnc4ccc(-c5ccc(Cl)cc5)cc4c32)n1 |  | 5.68 | solubility (Solubility pH 7.4; Table 3): < 1 µg/mL |
| N#Cc1cccc(-n2c(=N)ccc3cnc4ccc(-c5ccc(Cl)cc5)cc4c32)c1 |  |  | pEC50 ([1]; Table 2): 6.73; half-life ([2]; Table 2, read-out: Microsomal Stability (rat) T1/2): > 30 min; solubility (Solubility pH 7.4; Table 2): 25.9 µg/mL (≈ 63.7 µM) |
| Cn1nccc1-c1ccc2ncc3c(c2c1)n(-c1cncnc1)c(=N)n3C |  | 6.24 | solubility (Solubility pH 7.4; Table 3): 36.3 µg/mL (≈ 102 µM) |
| COc1cc(-c2ccc3ncc4c(c3c2)n(-c2cncnc2C)c(=N)n4C)ccc1F |  | 7.28 | solubility (Solubility pH 7.4; Table 3): < 1 µg/mL |
| Cn1c(=N)n(-c2cncnc2)c2c3cc(-c4ccc(Cl)c(C#N)c4)ccc3ncc21 |  | 6.87 |  |
| Cn1c(=N)n(-c2nccc(C(F)(F)F)n2)c2c3cc(-c4cccc(F)c4)ccc3ncc21 |  | 6.70 | solubility (Solubility pH 7.4; Table 3): < 1 µg/mL |
| Cn1c(=N)n(-c2nccc(C(F)(F)F)n2)c2c3cc(-c4ccc(Cl)cc4)ccc3ncc21 |  | 6.35 | solubility (Solubility pH 7.4; Table 3): < 1 µg/mL |
| COc1cc(-c2ccc3ncc4c(c3c2)n(-c2cncnc2C)c(=N)n4C)ccc1Cl |  | 7.29 | solubility (Solubility pH 7.4; Table 3): 1.3 µg/mL (≈ 3.02 µM) |
| COc1ccc(-c2ccc3ncc4c(c3c2)n(-c2cncnc2C)c(=N)n4C)cc1OC |  | 7.59 | half-life ([2]; Table 3, read-out: Microsomal Stability (rat) T1/2): > 30 min |
| COc1ccc(-c2ccc3ncc4c(c3c2)n(-c2cncnc2C)c(=N)n4C)cc1F |  | 6.64 | solubility (Solubility pH 7.4; Table 3): > 61 µg/mL |
| COc1ccnc(-n2c(=N)n(C)c3cnc4ccc(-c5cccc(F)c5)cc4c32)n1 |  | 5.88 | solubility (Solubility pH 7.4; Table 3): 6.5 µg/mL (≈ 16.2 µM) |
